# In patent US7968526B2, “Antisense oligonucleotides directed to ribonucleotide reductase R2 and uses thereof in the treatment of cancer” (Lorus Therapeutics Inc., priority 2003, dated 2011):
# “Also recorded” adds a separate entry of the source.
# Legend:
# [1] = tested on: PC-3 human prostatic cancer cells; test: PC-3 prostatic tumour xenograft in SCID mice, combination with mitoxantrone (1.4); type: in vivo, human cells in mice; details: PC-3, SCID mice; SEQ ID NO:1 10 mg/kg i.v. every other day 18 times; mitoxantrone 2 mg/kg i.v. once
# Method: After 52 days the mice were sacrificed and the tumours weighed. […] In both experiments, PC-3 human prostatic cancer cells (1×10^7 cells in 100 μl of PBS) were subcutaneously injected into the right flank of 6-7 weeks old male SCID mice. After the size of tumour reached an approximate volume of 50 mm^3, 14 days post tumour cell injection, SEQ ID NO: 1 was administered by bolus infusion into the tail vein every other day at 10 mg/kg 18 times (FIG. 4A) or 17 times (FIG. 4B), respectively. Control animals received saline alone for the same period. Antitumour effect of SEQ ID NO:1 was further compared to that of mitoxantrone (novantrone) alone or in combination. Mitoxantrone was administered intravenously once at the beginning of the treatments at a dose of 2 mg/kg (FIG. 4A) or once a week for four weeks at a reduced dose of 0.8 mg/kg (FIG. 4B). All treatments were stopped at day 50 (FIG. 4A) or 48 (FIG. 4B), respectively. A day after the last treatment, tumours were excised from the animals and their weights were measured. […] In both experiments, DU145 human prostatic cancer cells (1×10^7 cells in 100 μl of PBS) were subcutaneously injected into the right flank of 6-7 weeks old male SCID mice. After the size of tumour reached an approximate volume of 50 mm^3, 13 (FIG. 5A) or 11 (FIG. 5B) days post tumour cell injection, SEQ ID NO:1 was administered by bolus infusion into the tail vein every other day at 10 mg/kg 15 times (FIG. 5A) or 14 times (FIG. 5B), respectively. Control animals received saline alone for the same period. Antitumour effect of SEQ ID NO:1 was further compared to that of mitoxantrone (novantrone) alone or in combination. Mitoxantrone was administered intravenously once at the beginning of the treatments at a dose of 2 mg/kg (FIG. 5A) or once a week for four weeks at a reduced dose of 0.8 mg/kg (FIG. 5B). All treatments were stopped at day 42 (FIG. 5A) or 38 (FIG. 5B), respectively. A day after the last treatment, tumours were excised from the animals and their weights were measured.
# [2] = Pharmacokinetics in the monkey, 21 day continuous intravenous infusion; type: in vivo
# Method: The toxicokinetics and tissue distribution of SEQ ID NO:1 (and related oligonucleotide metabolites obtained from exonuclease-mediated chain shortening) were determined in rats and monkeys. In addition to investigating the pharmacokinetics and tissue distribution of SEQ ID NO:1, the purpose of the studies was to correlate adverse effects in the animal studies to the concentrations of SEQ ID NO:1 (and metabolites) in tissue and blood. A capillary electrophoresis (CE) method was used to measure the concentrations of SEQ ID NO:1 (and metabolites) in plasma and tissues.
# SEQ ID NO:1 was administered to monkeys by continuous intravenous infusion for 21 days followed by a 21-day recovery period. Twenty-eight monkeys were administered one of the following dose levels; vehicle control, 2, 10, or 50 mg/kg/day (24.6, 123, and 615 mg/m^2/day). Toxicokinetic samples were collected prior to the initiation of infusion, approximately 8, 24, 48, and 96 hours following the start of infusion, and on Day 20 prior to the change in dose-syringes.
# [3] = tested on: A498 human kidney cancer cells; test: A498 kidney tumour xenograft in SCID mice, controls and chemotherapeutics (Example 7); type: in vivo, human cells in mice; details: oligonucleotides 10 mg/kg/2 days i.v., 5-FU 13 mg/kg/day×5, vinblastine 1 mg/kg/week, gemcitabine 100 mg/kg/week
# Source text: CD-1 athymic female nude mice, BALB/c nu/nu nude mice, SCID, and SCID beige mice were purchased from Charles River Laboratories (Montreal, Canada) and experiments were typically initiated when the mice were 6-7 weeks old. […] Each experimental group typically contained 10 mice. After the size of tumour reached a mean tumour volume of 50-100 mm^3, treatment was initiated. […] Anti-tumour activity was estimated by the measurement of tumour volume with a calliper at two-three day intervals. Tumour volume was calculated by a formula L×W×H/2, where L indicates length, W indicates width and H indicates height. Within 24 hours after the last treatment, the animals were sacrificed and tumour and body weights were measured. Results of statistical analyses of the data are presented as P values in the figure legends.
# Three additional treatment groups received: 5-FU (13 mg/kg/day×5), vinblastine (1 mg/kg/week) and gemcitabine (100 mg/kg/week). […] Caliper measurements at 1-week intervals were used to calculate tumour volumes. Each point in FIG. 28C represents mean tumour volume calculated from 10 animals per experimental group (with the exception of SEQ ID NO: 1 which was 8 animals). […] After 54 days the mice were sacrificed and the A498 tumours weighed. Each bar represents the mean tumour weight and standard error calculated for each treatment group.
# [4] = Acute intravenous toxicity study in the monkey; type: in vivo; details: rhesus monkeys
# Method: Intravenous infusion of SEQ ID NO:1 for 24 hours at doses up to 80 mg/kg/day (984 mg/m^2/day) was well-tolerated by rhesus monkeys. […] These effects indicate an apparent inhibition of the intrinsic coagulation pathway, and modest activation of the alternative complement pathway, respectively. These treatment-related changes were typical class effects of phosphorothioate oligonucleotide administration.
# [5] = tested on: MDA-MB-231 human breast cancer cells; test: MDA-MB-231 breast tumour growth in CD-1 nude mice (3.3); type: in vivo, human cells in mice
# Method: Treatments lasted for 14 days thereafter. Antitumour activities were estimated by the inhibition of tumour volume, which was measured with a caliper on four different occasions over the treatment period. Each point represents mean tumour volume calculated from 5 animals per experimental group. […] Control animals (control) received saline alone for the same period. At the end of the treatments, the animals were sacrificed, tumours were excised and their weights were measured. Each bar represents mean tumour weight calculated from 6 animals per experimental group. […] Treatments lasted for 24 days thereafter. Antitumour activities were estimated by the inhibition of tumour volume, which was measured with a caliper at two-day intervals over the treatment period. Each point represents mean tumour volume calculated from 4 animals per experimental group. […] Treatments lasted for 24 days thereafter. Antitumour activities were estimated by the inhibition of tumour volume, which was measured with a caliper at two-day intervals over the treatment period. Each point represents mean tumour volume calculated from 4 animals per experimental group. […] Each point represents mean tumour volume calculated from 5 animals per experimental group. […] Antitumour activities were estimated by the inhibition of tumour volume, which was measured with a caliper on four different occasions over 16-day period. Each point represents mean tumour volume calculated from 5 animals per experimental group. […] Antitumour activities were estimated by the inhibition of tumour volume, which was measured with a caliper at two-day intervals over the treatment period. Each point represents mean tumour volume calculated from 5 animals per experimental group. […] Antitumour activities were estimated by the inhibition of tumour volume, which was measured with a caliper at various time intervals over the span of 30 days. Each point represents mean tumour volume calculated from 6 animals per experimental group. […] Antitumour activities were estimated by the inhibition of tumour volume, which was measured with a caliper. […]
# [6] = 10 mg/kg/day continuous i.v. infusion 21 days
# [7] = 50 mg/kg/day continuous i.v. infusion 21 days
substance,measurement,setting,value
"5′-GGCTAAATCGCTCCACCAAG-3′ (all phosphorothioate, sugars by position and methylation of C not given here) [SEQ ID NO: 1, fully phosphorothioated antisense oligonucleotide that hybridizes to the coding region of R2 mRNA]","Antitumour effect (tumour weight, FIG. 4A)",[1],significant delay of tumour growth compared to saline control
same,Plasma concentrations,[2]; 2 mg/kg dose group,could not be detected
same,median Tmax,[2]; 10 mg/kg dose group,20 days
same,Cl,[2]; [6],3.47 ± 0.867 mL/min/kg
same,Cmax,[2]; [6],2.94 µg/mL
same,Css,[2]; [6],2.10 ± 0.48 µg/mL
same,Tmax (mean),[2]; [6],13.5 days
same,median Tmax,[2]; 50 mg/kg dose group,1 days
same,Cl,[2]; [7],2.17 ± 0.267 mL/min/kg
same,Cmax,[2]; [7],20.3 µg/mL
same,Css,[2]; [7],16.2 ± 2.2 µg/mL
same,Tmax (mean),[2]; [7],7.12 days
same,Time to steady state plasma concentration,[2]; continuous i.v. infusion,steady state by eight hours after dosing
same,Effect on tumour growth (volume and weight),[3],dramatic inhibition in growth of Caki-1 and A498 renal tumours; also recorded: superior to any of these compounds
same,"Clinical signs, body weight, blood pressure, heart rate, serum biochemistry, haematology","[4]; 24 hour i.v. infusion, any dose","No treatment-related clinical signs or changes in body weight, blood pressure, heart rate, serum biochemistry or haematology parameters"
same,Deaths,"[4]; 24 hour i.v. infusion, doses up to 80 mg/kg/day",no deaths during the study
same,Complement split product Bb,"[4]; end of infusion at 20, 40, and 80 mg/kg/day",slight treatment-related increases in complement split product Bb
same,APTT,[4]; end of infusion at 40 and 80 mg/kg/day,Mild treatment-related changes in APTT
same,Tolerability,[4]; intravenous infusion for 24 hours at doses up to 80 mg/kg/day (984 mg/m^2/day),well-tolerated
same,Inhibition of tumour size,[5]; Human Breast Adenocarcinoma,Inhibition of tumour size by approximately 80%
same,Inhibition of tumour weight,"[5]; Human Breast Adenocarcinoma, Day 31 after tumour implantation",~80% on Day 31 after tumour implantation
same,"Inhibitory effect on tumour growth (tumour volume, FIG. 18B)","[5]; MDA-MB-231, CD-1 nude mice, 10 mg/kg i.v. every other day, 24 days",strong inhibitory effects on the growth of human breast carcinoma
